B1: IL-10: anti-inflammatory cytokine (R&D Systems, USA) (protein, UniProt P22301 19-178, looked up)
Interleukin-10: SPGQGTQSENSCTHFPGNLPNMLRDLRDAFSRVKTFFQMKDQLDNLLLKESLLEDFKGYLGCQALSEMIQFYLEEVMPQAENQDPDIKAHVNSLGENLKTLRLRLRRCHRFLPCENKSKAVEQVKNAFNKLQEKGIYKAMSEFDIFINYIEAYMTMKIRN
B2: IL-12: anti-inflammatory cytokine (R&D Systems, USA) (protein, UniProt P29459 23-219; P29460 23-328, looked up)
Interleukin-12 subunit alpha: RNLPVATPDPGMFPCLHHSQNLLRAVSNMLQKARQTLEFYPCTSEEIDHEDITKDKTSTVEACLPLELTKNESCLNSRETSFITNGSCLASRKTSFMMALCLSSIYEDLKMYQVEFKTMNAKLLMDPKRQIFLDQNMLAVIDELMQALNFNSETVPQKSSLEEPDFYKTKIKLCILLHAFRIRAVTIDRVMSYLNAS
Interleukin-12 subunit beta: IWELKKDVYVVELDWYPDAPGEMVVLTCDTPEEDGITWTLDQSSEVLGSGKTLTIQVKEFGDAGQYTCHKGGEVLSHSLLLLHKKEDGIWSTDILKDQKEPKNKTFLRCEAKNYSGRFTCWWLTTISTDLTFSVKSSRGSSDPQGVTCGAATLSAERVRGDNKEYEYSVECQEDSACPAAEESLPIEVMVDAVHKLKYENYTSSFFIRDIIKPDPPKNLQLKPLKNSRQVEVSWEYPDTWSTPHSYFSLTFCVQVQGKSKREKKDRVFTDKTSATVICRKNASISVRAQDRYYSSSWSEWASVPCS
B3: IL-4: anti-inflammatory cytokine (R&D Systems, USA) (protein, UniProt P05112 25-153, looked up)
Interleukin-4: HKCDITLQEIIKTLNSLTEQKTLCTELTVTDIFAASKNTTEKETFCRAATVLRQFYSHHEKDTRCLGATAQQFHRHKQLIRFLKRLDRNLWGLAGLNSCPVKEANQSTLENFLERLKTIMREKYSKCSS

Assays:
[1] = system: HIF-2α; assay: Expression of HIF-2α in mouse knee joint chondrocytes (RT-PCR, qRT-PCR, western blot); type: cell-based; settings: for expression of HIF-2α transcripts and proteins: signal pathway inhibitor in chondrocytes; for expression of HIF-2α: mouse knee joint chondrocytes treated with the cytokine
Experimental: In order to induce pathological condition of cartilage degeneration in knee joint chondrocytes of mouse (Charles River, Japan), the cells were treated with interleukin 1β (IL-1β, Calbiochem, USA), IL-17 (R&D Systems, USA), TNF-α (R&D Systems, USA) or IL-21 (R&D Systems, USA), which are known as proinflammatory cytokines. The expression level of HIF-2α was investigated by RT-PCR, qRT-PCR and western blot. The mouse knee joint chondrocytes were isolated from the knee joint of 8-day-old ICR mouse (Charles River, Japan) and cultured in DMEM (Gibco, USA) containing 10% (v/v) fetal bovine serum (Gibco, USA), 50 μg/mL streptomycin (Sigma-Aldrich, USA) and 50 unit/mL penicillin (Sigma-Aldrich, USA). As a result, it was confirmed that whereas the expression of HIF-2α is increased by the proinflammatory cytokines, it is not affected by the anti-inflammatory cytokines IL-4 (R&D Systems, USA), IL-10 (R&D Systems, USA) and […] (R&D Systems, USA) (FIGS. 2a and 2b). IL-1β activates various signal transduction pathways in chondrocytes. Activation of NF-κβ and degradation of IκB protein were confirmed by western blot, and phosphorylation of extracellular signal-regulated kinase (ERK), c-Jun N-terminal kinase (JNK) and p38 MAP kinase from among mitogen-activated protein (MAP) kinase subtypes was confirmed by western blot (FIG. 2c). […] Accordingly, it was confirmed through RT-PCR and western blot (FIG. 2d) and quantification of HIF-2α transcripts by real-time RT-PCR (qRT-PCR) that NFkB and JNK regulate the expression of HIF-2α (FIG. 2e). It was confirmed through immunohistochemical staining that IκB and phosphorylated JNK (pJNK) activating NF-κβ are activated in larger amounts in human degenerative articular cartilage tissue (OA; osteoarthritis) as compared to normal cartilage (Normal).

[2] = system: cartilage degeneration-inducing factors MMP (1, 3, 9, 12, 13), ADAMTS4, PTGS2, NOS2; assay: Expression of cartilage degeneration-inducing factors in chondrocytes after HIF-2α siRNA (RT-PCR, western blot, qRT-PCR); type: cell-based, mouse; settings: for expression of the cartilage degeneration-inducing factors MMP (1, 3, 9, 12, 13), ADAMTS4, PTGS2, NOS2: siRNA 25, 50, 100 nM for 7 hours, then IL-1β medium 1.5 days, vs C-siRNA 100 nM
Experimental: Also, the expression of the cartilage degeneration-inducing factors was investigated after artificially inhibiting expression of HIF-2α using an siRNA specific for HIF-2α. More specifically, mouse knee joint chondrocytes were kept in a culture medium for 72 hours. After infecting with control (C-siRNA, 100 nM) or HIF-2α siRNA (25, 50, 100 nM) for 7 hours, the cells were cultured in a medium containing IL-1B for 1.5 days. The cells were recovered and cartilage degeneration-inducing factors were identified by RT-PCR and western blot. GAPDH and lamin B were used as loading control. Also, mRNA (FIG. 3a) and protein (FIG. 3b) levels of HIF-2α, MMP, ADAMTS, PTGS2 and NOS2 were measured by RT-PCR and western blot and their expression level was quantitated by qRT-PCR (FIGS. 3c and 3d). GAPDH and lamin B were used as loading control. Primers used in PCR are described in Table 1. As a result, it was confirmed that the expression of the cartilage degeneration-inducing factors MMP (1, 3, 9, 12, 13), ADAMTS4, PTGs2, NOS2, etc. is decreased as the expression of HIF-2α is inhibited.
(§1) Also, it was confirmed by qRT-PCR that the expression level of these transcripts is increased by Ad-HIF-2α and decreased by siRNA (FIG. 4a). The experimental procedure was the same as with MMP and ADAMT as described above. NOS2 and PTGS2 regulate cartilage degeneration by inducing production of nitric oxide (NO) and prostaglandin E2 (PGE2), respectively. The level of these metabolites was increased by Ad-HIF-2α and decreased by siRNA, as the expression level of PTGS2 and NOS2 transcripts (FIG. 4b).

[3] = system: nitric oxide (NO) and prostaglandin E2 (PGE2); assay: Production of nitric oxide (NO) and prostaglandin E2 (PGE2) in articular chondrocytes; type: cell-based; settings: mouse knee joint chondrocytes
Description: as §1

[4] = system: MAP kinase; assay: MAP kinase phosphorylation in cytokine-treated chondrocytes; type: cell-based; settings: cytokine-treated mouse knee articular chondrocytes, HIF-2α-siRNA
Description: According to a preferred embodiment, the siRNA of the present invention has nucleotide sequence included the nucleotide sequence as set forth in SEQ ID NO:1.

Row | Molecule | expression of HIF-2α [1] | other results
1 | CC(C)(C)c1ccc(S(=O)(=O)/C=C/C#N)cc1 [BAY 11-7085, reference compound] |  | expression of HIF-2α transcripts and proteins [1]: decreased remarkably
2 | COc1cccc(-c2cc(=O)c3ccccc3o2)c1N [PD98059, reference compound] |  | expression of HIF-2α transcripts and proteins [1]: inhibition effect was slightly weak
3 | C[S+]([O-])c1ccc(-c2nc(-c3ccncc3)c(-c3ccc(F)cc3)[nH]2)cc1 (stereo not shown) [SB203580, reference compound] |  | expression of HIF-2α transcripts and proteins [1]: no effect
4 | HIF-2α siRNA: siRNA specific for HIF-2α; mouse sense 5′-AGUUGUUGUAGACUUUCACCUGGC-3′, antisense 5′-GGCCAGGUGAAAGUCUACAACAAC-3′ (SEQ ID NO 4, 5) (listed as RNA, chemistry not given here) |  | expression level of PTGS2 and NOS2 transcripts (qRT-PCR) ([2]; mouse knee joint chondrocytes, siRNA): decreased; expression of the cartilage degeneration-inducing factors MMP (1, 3, 9, 12, 13), ADAMTS4, PTGS2, NOS2 [2]: decreased; expression of the cartilage degeneration-inducing factors MMP (1, 3, 9, 12, 13), ADAMTS4, PTGS2, NOS2 ([2]; listed as HIF-2α-siRNA): markedly decreased; level of metabolites nitric oxide (NO) and prostaglandin E2 (PGE2) [3]: decreased; MAP kinase phosphorylation [4]: significantly reduced
5 | IL-17: proinflammatory cytokine (R&D Systems, USA) | increased | 
6 | IL-18: proinflammatory cytokine named in the legend of FIG. 2 | increased | 
7 | IL-21: proinflammatory cytokine (R&D Systems, USA) | increased | 
8 | TNF-α | increased | 
9 | interleukin 1β [IL-1β] | increased | 
10 | B1 | not affected | 
11 | B2 | not affected | 
12 | B3 | not affected | 

— US8741868B2, “Pharmaceutical composition including an HIF-2 alpha inhibitor as an active ingredient for preventing or treating arthritis” (Gwangju Institute of Science and Technology, priority 2010, dated 2014)
